# Laboratory results as given in PubChem BioAssay AID1745844 (Carcinogenic Potency Database (CPDB), 2022).
# Calls of active or inactive are those of the source. The rule behind the calls is not given here.
# Tested on: rodent lifetime carcinogenesis bioassay, tumor incidence TD50
# Assay: chronic cancer bioassays in animals – CPDB, compiled studies (AID 1745844)
# Conditions: for carcinogen call: strain CBA, lesion: hepatoma, dosed 52 weeks
structure (smiles),measurement,setting,value
CCn1c2ccccc2c2cc(N)ccc21,TD50,"mouse, strain B6C3F1, females, in feed, site: any site (literature study), lesion: several types, types named in the paper, dosed 78 weeks, study length 95 weeks",41.8 mg/kg/day
same,TD50,"mouse, strain B6C3F1, females, in feed, site: liver, lesion: hepatocellular adenoma + hepatocellular carcinoma + neoplastic nodule, dosed 78 weeks, study length 95 weeks",33 mg/kg/day
same,TD50,"mouse, strain B6C3F1, females, in feed, site: liver, lesion: hepatocellular carcinoma, dosed 78 weeks, study length 95 weeks",33 mg/kg/day
same,TD50,"mouse, strain B6C3F1, females, in feed, site: lung, lesion: alveolar/bronchiolar adenoma + alveolar/bronchiolar carcinoma, dosed 78 weeks, study length 95 weeks",1780 mg/kg/day
same,TD50,"mouse, strain B6C3F1, males, in feed, site: any site (literature study), lesion: several types, types named in the paper, dosed 78 weeks, study length 95 weeks",70.6 mg/kg/day
same,TD50,"mouse, strain B6C3F1, males, in feed, site: liver, lesion: hepatocellular adenoma + hepatocellular carcinoma + neoplastic nodule, dosed 78 weeks, study length 95 weeks",49.8 mg/kg/day
same,TD50,"mouse, strain B6C3F1, males, in feed, site: liver, lesion: hepatocellular adenoma + hepatocellular carcinoma, dosed 78 weeks, study length 95 weeks",49.8 mg/kg/day
same,TD50,"mouse, strain B6C3F1, males, in feed, site: liver, lesion: hepatocellular carcinoma, dosed 78 weeks, study length 95 weeks",46.4 mg/kg/day
same,TD50,"rat, strain Fischer 344, females, in feed, site: Zymbal's gland, lesion: carcinoma, NOS + squamous-cell carcinoma, dosed 78 weeks, study length 107 weeks",151 mg/kg/day
same,TD50,"rat, strain Fischer 344, females, in feed, site: Zymbal's gland, lesion: squamous-cell carcinoma, dosed 78 weeks, study length 107 weeks",212 mg/kg/day
same,TD50,"rat, strain Fischer 344, females, in feed, site: any site (literature study), lesion: several types, types named in the paper, dosed 78 weeks, study length 107 weeks",44.7 mg/kg/day
same,TD50,"rat, strain Fischer 344, females, in feed, site: liver + uterus + Zymbal's gland, lesion: hepatocellular carcinoma + neoplastic nodule + adenocarcinoma, NOS + carcinoma, NOS + squamous-cell carcinoma, dosed 78 weeks, study length 107 weeks",55.1 mg/kg/day
same,TD50,"rat, strain Fischer 344, females, in feed, site: liver, lesion: hepatocellular adenoma + hepatocellular carcinoma + neoplastic nodule, dosed 78 weeks, study length 107 weeks",237 mg/kg/day
same,TD50,"rat, strain Fischer 344, females, in feed, site: liver, lesion: hepatocellular carcinoma + neoplastic nodule, dosed 78 weeks, study length 107 weeks",237 mg/kg/day
same,TD50,"rat, strain Fischer 344, females, in feed, site: uterus, lesion: adenocarcinoma, NOS, dosed 78 weeks, study length 107 weeks",106 mg/kg/day
same,TD50,"rat, strain Fischer 344, males, in feed, site: Zymbal's gland, lesion: carcinoma, NOS + squamous-cell carcinoma, dosed 78 weeks, study length 106 weeks",240 mg/kg/day
same,TD50,"rat, strain Fischer 344, males, in feed, site: any site (literature study), lesion: several types, types named in the paper, dosed 78 weeks, study length 106 weeks",42.7 mg/kg/day
same,TD50,"rat, strain Fischer 344, males, in feed, site: liver + skin + subcutaneous tissue + Zymbal's gland, lesion: hepatocellular carcinoma + neoplastic nodule + basal-cell carcinoma + squamous-cell carcinoma + squamous-cell papilloma + carcinom, dosed 78 weeks, study length 106 weeks",28.1 mg/kg/day
same,TD50,"rat, strain Fischer 344, males, in feed, site: liver, lesion: hepatocellular adenoma + hepatocellular carcinoma + neoplastic nodule, dosed 78 weeks, study length 106 weeks",39.2 mg/kg/day
same,TD50,"rat, strain Fischer 344, males, in feed, site: liver, lesion: hepatocellular carcinoma + neoplastic nodule, dosed 78 weeks, study length 106 weeks",39.2 mg/kg/day
same,TD50,"rat, strain Fischer 344, males, in feed, site: liver, lesion: hepatocellular carcinoma, dosed 78 weeks, study length 106 weeks",156 mg/kg/day
same,TD50,"rat, strain Fischer 344, males, in feed, site: skin + subcutaneous tissue, lesion: basal-cell carcinoma + squamous-cell carcinoma + squamous-cell papilloma, dosed 78 weeks, study length 106 weeks",203 mg/kg/day
same,TD50,"rat, strain Fischer 344, males, in feed, site: skin + subcutaneous tissue, lesion: squamous-cell carcinoma + squamous-cell papilloma, dosed 78 weeks, study length 106 weeks",257 mg/kg/day
Oc1ccc2ccccc2c1N=Nc1ccccc1,TD50,"mouse, strain B6C3F1, females, in feed, site: all sites, lesion: lymphoma, dosed 103 weeks, study length 105 weeks",128 mg/kg/day (inactive)
same,TD50,"mouse, strain B6C3F1, females, in feed, site: any site (literature study), lesion: several types, types named in the paper, dosed 103 weeks, study length 105 weeks",391 mg/kg/day
same,TD50,"mouse, strain B6C3F1, females, in feed, site: liver, lesion: hepatocellular adenoma + hepatocellular carcinoma + neoplastic nodule, dosed 103 weeks, study length 105 weeks",833 mg/kg/day
same,TD50,"mouse, strain B6C3F1, females, in feed, site: lung, lesion: alveolar/bronchiolar adenoma + alveolar/bronchiolar carcinoma, dosed 103 weeks, study length 105 weeks",3030 mg/kg/day
same,TD50,"mouse, strain B6C3F1, males, in feed, site: any site (literature study), lesion: several types, types named in the paper, dosed 103 weeks, study length 105 weeks",154 mg/kg/day (inactive)
same,TD50,"mouse, strain B6C3F1, males, in feed, site: liver, lesion: hepatocellular adenoma + hepatocellular carcinoma + neoplastic nodule, dosed 103 weeks, study length 105 weeks",587 mg/kg/day
same,TD50,"mouse, strain B6C3F1, males, in feed, site: lung, lesion: alveolar/bronchiolar adenoma + alveolar/bronchiolar carcinoma, dosed 103 weeks, study length 105 weeks",1080 mg/kg/day
same,carcinogen call,"mouse, females, in feed, site: liver, study length 104 weeks",negative (inactive)
same,carcinogen call,"mouse, males, in feed, site: liver, study length 104 weeks",negative (inactive)
same,TD50,"rat, strain Fischer 344, females, in feed, site: liver, lesion: hepatocellular adenoma + hepatocellular carcinoma + neoplastic nodule, dosed 103 weeks, study length 104 weeks",86.5 mg/kg/day
same,TD50,"rat, strain Fischer 344, females, in feed, site: liver, lesion: hepatocellular carcinoma + neoplastic nodule, dosed 103 weeks, study length 104 weeks",86.5 mg/kg/day
same,TD50,"rat, strain Fischer 344, females, in feed, site: liver, lesion: neoplastic nodule, dosed 103 weeks, study length 104 weeks",96.6 mg/kg/day
same,TD50,"rat, strain Fischer 344, females, in feed, site: subcutaneous tissue, lesion: fibroma, dosed 103 weeks, study length 104 weeks",346 mg/kg/day
same,TD50,"rat, strain Fischer 344, males, in feed, site: any site (literature study), lesion: several types, types named in the paper, dosed 103 weeks, study length 104 weeks",106 mg/kg/day
same,TD50,"rat, strain Fischer 344, males, in feed, site: liver, lesion: hepatocellular adenoma + hepatocellular carcinoma + neoplastic nodule, dosed 103 weeks, study length 104 weeks",17.9 mg/kg/day
same,TD50,"rat, strain Fischer 344, males, in feed, site: liver, lesion: hepatocellular carcinoma + neoplastic nodule, dosed 103 weeks, study length 104 weeks",17.9 mg/kg/day
same,TD50,"rat, strain Fischer 344, males, in feed, site: liver, lesion: neoplastic nodule, dosed 103 weeks, study length 104 weeks",17.7 mg/kg/day
Cc1ccc(S(=O)(=O)OCCN(C)N=O)cc1,TD50,"rat, strain Fischer 344, females, by gavage, site: liver, lesion: hemangiosarcoma, dosed 121 weeks, study length 121 weeks",12.8 mg/kg/day
same,TD50,"rat, strain Fischer 344, females, by gavage, site: liver, lesion: hepatocellular carcinoma, dosed 121 weeks, study length 121 weeks",7.55 mg/kg/day
same,TD50,"rat, strain Fischer 344, females, by gavage, site: liver, lesion: neoplastic nodule, dosed 121 weeks, study length 121 weeks",22.3 mg/kg/day
same,TD50,"rat, strain Fischer 344, females, by gavage, site: liver, lesion: several types, types named in the paper, dosed 121 weeks, study length 121 weeks",3.47 mg/kg/day
same,TD50,"rat, strain Fischer 344, males, by gavage, site: liver, lesion: hemangiosarcoma, dosed 121 weeks, study length 121 weeks",11.8 mg/kg/day
same,TD50,"rat, strain Fischer 344, males, by gavage, site: liver, lesion: hepatocellular carcinoma, dosed 121 weeks, study length 121 weeks",32.2 mg/kg/day
same,TD50,"rat, strain Fischer 344, males, by gavage, site: liver, lesion: neoplastic nodule, dosed 121 weeks, study length 121 weeks",12.6 mg/kg/day
same,TD50,"rat, strain Fischer 344, males, by gavage, site: liver, lesion: several types, types named in the paper, dosed 121 weeks, study length 121 weeks",7.79 mg/kg/day
same,TD50,"rat, strain Fischer 344, males, by gavage, site: pituitary gland, lesion: adenoma, dosed 121 weeks, study length 121 weeks",11.1 mg/kg/day
same,TD50,"rat, strain Fischer 344, males, by gavage, site: testis, lesion: interstitial-cell tumor, dosed 121 weeks, study length 121 weeks",11.1 mg/kg/day
O=NN1CCCCCC1,TD50,"mouse, strain BALB/c, females, by gavage, site: esophagus, lesion: squamous-cell papilloma, dosed 30 weeks, study length 49 weeks",19.7 mg/kg/day
same,TD50,"mouse, strain BALB/c, females, by gavage, site: liver, lesion: several types, types named in the paper, dosed 30 weeks, study length 49 weeks",0.797 mg/kg/day
same,TD50,"mouse, strain BALB/c, females, by gavage, site: lung, lesion: several types, types named in the paper, dosed 30 weeks, study length 49 weeks",7.44 mg/kg/day
same,TD50,"mouse, strain BALB/c, females, by gavage, site: nasal mucosa, lesion: several types, types named in the paper, dosed 30 weeks, study length 49 weeks",4.5 mg/kg/day
same,TD50,"mouse, strain Charles River CD1, females, by gavage, site: esophagus, lesion: squamous-cell papilloma, dosed 30 weeks, study length 62 weeks",12.7 mg/kg/day
same,TD50,"mouse, strain Charles River CD1, females, by gavage, site: forestomach, lesion: several types, types named in the paper, dosed 30 weeks, study length 62 weeks",5.65 mg/kg/day
same,TD50,"mouse, strain Charles River CD1, females, by gavage, site: liver, lesion: several types, types named in the paper, dosed 30 weeks, study length 62 weeks",0.746 mg/kg/day
same,TD50,"mouse, strain Charles River CD1, females, by gavage, site: lung, lesion: several types, types named in the paper, dosed 30 weeks, study length 62 weeks",2.71 mg/kg/day
same,TD50,"mouse, strain Charles River CD1, females, by gavage, site: nasal mucosa, lesion: one or several types, types not named, dosed 30 weeks, study length 62 weeks",26 mg/kg/day
same,TD50,"mouse, strain NZO/BlGd, females, in drinking water, site: esophagus, lesion: several types, types named in the paper, dosed 32 weeks, study length 74 weeks",0.725 mg/kg/day
same,TD50,"mouse, strain NZO/BlGd, females, in drinking water, site: liver, lesion: hepatocellular carcinoma, dosed 32 weeks, study length 74 weeks",3.21 mg/kg/day
same,TD50,"mouse, strain NZO/BlGd, females, in drinking water, site: oropharynx, lesion: several types, types named in the paper, dosed 32 weeks, study length 74 weeks",6.37 mg/kg/day
same,TD50,"mouse, strain NZO/BlGd, females, in drinking water, site: stomach, glandular, lesion: several types, types named in the paper, dosed 32 weeks, study length 74 weeks",4.05 mg/kg/day
same,TD50,"mouse, strain NZO/BlGd, females, in drinking water, site: stomach, squamous, lesion: several types, types named in the paper, dosed 32 weeks, study length 74 weeks",0.415 mg/kg/day
same,TD50,"mouse, strain NZO/BlGd, males, in drinking water, site: esophagus, lesion: several types, types named in the paper, dosed 32 weeks, study length 60 weeks",0.313 mg/kg/day
same,TD50,"mouse, strain NZO/BlGd, males, in drinking water, site: liver, lesion: hepatocellular carcinoma, dosed 32 weeks, study length 60 weeks",8.03 mg/kg/day
same,TD50,"mouse, strain NZO/BlGd, males, in drinking water, site: lung, lesion: several types, types named in the paper, dosed 32 weeks, study length 60 weeks",1.93 mg/kg/day
same,TD50,"mouse, strain NZO/BlGd, males, in drinking water, site: oropharynx, lesion: several types, types named in the paper, dosed 32 weeks, study length 60 weeks",1.41 mg/kg/day
same,TD50,"mouse, strain NZO/BlGd, males, in drinking water, site: stomach, glandular, lesion: several types, types named in the paper, dosed 32 weeks, study length 60 weeks",3.23 mg/kg/day
same,TD50,"mouse, strain NZO/BlGd, males, in drinking water, site: stomach, squamous, lesion: several types, types named in the paper, dosed 32 weeks, study length 60 weeks",0.448 mg/kg/day
same,TD50,"mouse, strain SENCAR, females, by gavage, site: esophagus, lesion: squamous-cell papilloma, dosed 30 weeks, study length 67 weeks",6.47 mg/kg/day
same,TD50,"mouse, strain SENCAR, females, by gavage, site: forestomach, lesion: several types, types named in the paper, dosed 30 weeks, study length 67 weeks",2.25 mg/kg/day
same,TD50,"mouse, strain SENCAR, females, by gavage, site: liver, lesion: several types, types named in the paper, dosed 30 weeks, study length 67 weeks",1.92 mg/kg/day
same,TD50,"mouse, strain SENCAR, females, by gavage, site: lung, lesion: several types, types named in the paper, dosed 30 weeks, study length 67 weeks",0.783 mg/kg/day
same,TD50,"mouse, strain SENCAR, females, by gavage, site: nasal mucosa, lesion: several types, types named in the paper, dosed 30 weeks, study length 67 weeks",6.47 mg/kg/day
NC(=O)c1cnccn1,TD50,"mouse, strain B6C3F1, females, in feed, site: any site (literature study), lesion: several types, types named in the paper, dosed 78 weeks, study length 104 weeks",3430 mg/kg/day
same,TD50,"mouse, strain B6C3F1, females, in feed, site: liver, lesion: hepatocellular adenoma + hepatocellular carcinoma + neoplastic nodule, dosed 78 weeks, study length 104 weeks",10700 mg/kg/day
same,TD50,"mouse, strain B6C3F1, males, in feed, site: any site (literature study), lesion: several types, types named in the paper, dosed 78 weeks, study length 104 weeks",546 mg/kg/day (inactive)
same,TD50,"mouse, strain B6C3F1, males, in feed, site: liver, lesion: hepatocellular adenoma + hepatocellular carcinoma + neoplastic nodule, dosed 78 weeks, study length 104 weeks",5180 mg/kg/day
same,TD50,"rat, strain Fischer 344, females, in feed, site: any site (literature study), lesion: several types, types named in the paper, dosed 78 weeks, study length 104 weeks",182 mg/kg/day
same,TD50,"rat, strain Fischer 344, females, in feed, site: pituitary gland, lesion: chromophobe adenoma + chromophobe carcinoma, dosed 78 weeks, study length 104 weeks",178 mg/kg/day (inactive)
same,TD50,"rat, strain Fischer 344, males, in feed, site: any site (literature study), lesion: several types, types named in the paper, dosed 78 weeks, study length 104 weeks",284 mg/kg/day (inactive)
